{"source": "paper doi:10.1101/2024.08.19.608619", "about": "“Discovery of potent SARS-CoV-2 nsp3 macrodomain inhibitors uncovers lack of translation to cellular antiviral response” (bioRxiv, 2024)", "key": {"kinase panel": {"tested_on": "kinase panel", "test": "Eurofins kinase panel", "assay_type": "biochemical", "details": "test compound 10 uM"}, "in vitro": {"test": "in vitro", "set-up": "Cytotoxicity in iPSC-derived pneumocytes, CC50", "details": "human, ipsc-derived pneumocytes; ASAP-0008327-001=ASAP-0011176-001; read-out: 50.0"}, "CYP2C19": {"target": "CYP2C19 (Homo sapiens, UniProt P33261)", "sequence (P33261 whole entry, canonical isoform)": "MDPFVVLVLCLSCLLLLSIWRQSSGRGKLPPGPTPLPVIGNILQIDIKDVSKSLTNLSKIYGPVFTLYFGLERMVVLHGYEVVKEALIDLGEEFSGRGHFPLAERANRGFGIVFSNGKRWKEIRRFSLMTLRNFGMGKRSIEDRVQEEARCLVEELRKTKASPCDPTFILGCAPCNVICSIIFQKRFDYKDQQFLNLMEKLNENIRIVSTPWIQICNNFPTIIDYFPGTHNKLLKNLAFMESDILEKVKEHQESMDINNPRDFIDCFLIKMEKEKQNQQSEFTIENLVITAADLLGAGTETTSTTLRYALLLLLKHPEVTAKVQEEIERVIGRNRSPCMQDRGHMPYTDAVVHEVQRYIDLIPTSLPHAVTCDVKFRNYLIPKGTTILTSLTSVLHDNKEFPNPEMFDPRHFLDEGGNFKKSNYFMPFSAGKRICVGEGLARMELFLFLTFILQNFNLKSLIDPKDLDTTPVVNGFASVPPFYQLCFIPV", "test": "CYP inhibition", "assay_type": "in vitro ADME", "details": "human; isoform 2C19; In vitro CYP inhibition pooled", "source_text": "(§1) Supplement media-1.zip/CYP_Inhibition.csv, table | column: ic50; potency"}, "CYP2C9": {"target": "CYP2C9 (Homo sapiens, UniProt P11712)", "sequence (P11712 whole entry, canonical isoform)": "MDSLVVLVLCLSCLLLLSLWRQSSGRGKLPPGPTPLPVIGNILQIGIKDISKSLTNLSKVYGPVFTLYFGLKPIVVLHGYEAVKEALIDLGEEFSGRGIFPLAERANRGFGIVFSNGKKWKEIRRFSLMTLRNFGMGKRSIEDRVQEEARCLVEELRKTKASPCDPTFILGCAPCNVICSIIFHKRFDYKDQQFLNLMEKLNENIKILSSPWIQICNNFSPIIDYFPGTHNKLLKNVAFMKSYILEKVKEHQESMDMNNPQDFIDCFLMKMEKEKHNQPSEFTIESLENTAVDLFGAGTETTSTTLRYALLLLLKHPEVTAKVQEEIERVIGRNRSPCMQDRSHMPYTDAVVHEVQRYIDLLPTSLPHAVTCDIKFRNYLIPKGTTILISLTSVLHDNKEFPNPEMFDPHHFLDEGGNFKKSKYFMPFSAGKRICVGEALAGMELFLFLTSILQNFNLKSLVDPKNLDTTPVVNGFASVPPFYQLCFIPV", "test": "CYP inhibition", "assay_type": "in vitro ADME", "details": "human; isoform 2C9; In vitro CYP inhibition pooled", "source_text": "as §1"}, "CYP1A2": {"target": "CYP1A2 (Homo sapiens, UniProt P05177)", "sequence (P05177 2-516)": "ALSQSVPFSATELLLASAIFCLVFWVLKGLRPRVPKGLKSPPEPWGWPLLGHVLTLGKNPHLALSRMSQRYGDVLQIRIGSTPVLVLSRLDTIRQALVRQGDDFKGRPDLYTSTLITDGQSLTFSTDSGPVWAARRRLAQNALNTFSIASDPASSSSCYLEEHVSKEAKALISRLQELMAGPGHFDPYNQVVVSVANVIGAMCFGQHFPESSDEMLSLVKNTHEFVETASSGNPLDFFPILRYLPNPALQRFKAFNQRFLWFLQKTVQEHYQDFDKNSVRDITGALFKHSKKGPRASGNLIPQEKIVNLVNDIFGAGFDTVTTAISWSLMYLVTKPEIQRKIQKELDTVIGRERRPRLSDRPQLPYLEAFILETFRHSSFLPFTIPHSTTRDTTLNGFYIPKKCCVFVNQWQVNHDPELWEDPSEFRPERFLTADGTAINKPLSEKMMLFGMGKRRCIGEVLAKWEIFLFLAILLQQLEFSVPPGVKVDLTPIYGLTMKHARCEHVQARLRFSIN", "test": "CYP inhibition", "assay_type": "in vitro ADME", "details": "human; isoform 1A2; In vitro CYP inhibition pooled", "source_text": "as §1"}, "CYP2D6": {"target": "CYP2D6 (Homo sapiens, UniProt P10635)", "sequence (P10635 whole entry, canonical isoform)": "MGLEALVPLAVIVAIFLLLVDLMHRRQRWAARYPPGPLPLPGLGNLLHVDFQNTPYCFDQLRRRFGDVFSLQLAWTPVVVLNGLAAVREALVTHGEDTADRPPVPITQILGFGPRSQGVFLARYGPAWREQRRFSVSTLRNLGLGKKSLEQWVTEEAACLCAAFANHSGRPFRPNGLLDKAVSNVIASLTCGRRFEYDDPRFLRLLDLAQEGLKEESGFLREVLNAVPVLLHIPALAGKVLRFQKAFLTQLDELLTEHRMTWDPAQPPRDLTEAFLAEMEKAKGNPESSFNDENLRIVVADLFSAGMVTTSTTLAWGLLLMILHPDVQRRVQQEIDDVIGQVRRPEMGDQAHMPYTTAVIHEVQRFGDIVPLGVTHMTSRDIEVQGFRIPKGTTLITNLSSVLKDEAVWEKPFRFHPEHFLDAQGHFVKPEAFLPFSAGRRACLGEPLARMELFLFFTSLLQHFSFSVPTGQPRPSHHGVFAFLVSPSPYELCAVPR", "test": "CYP inhibition", "assay_type": "in vitro ADME", "details": "human; isoform 2D6; In vitro CYP inhibition pooled", "source_text": "as §1"}, "CYP3A4": {"target": "CYP3A4 (Homo sapiens, UniProt P08684)", "sequence (P08684 2-503)": "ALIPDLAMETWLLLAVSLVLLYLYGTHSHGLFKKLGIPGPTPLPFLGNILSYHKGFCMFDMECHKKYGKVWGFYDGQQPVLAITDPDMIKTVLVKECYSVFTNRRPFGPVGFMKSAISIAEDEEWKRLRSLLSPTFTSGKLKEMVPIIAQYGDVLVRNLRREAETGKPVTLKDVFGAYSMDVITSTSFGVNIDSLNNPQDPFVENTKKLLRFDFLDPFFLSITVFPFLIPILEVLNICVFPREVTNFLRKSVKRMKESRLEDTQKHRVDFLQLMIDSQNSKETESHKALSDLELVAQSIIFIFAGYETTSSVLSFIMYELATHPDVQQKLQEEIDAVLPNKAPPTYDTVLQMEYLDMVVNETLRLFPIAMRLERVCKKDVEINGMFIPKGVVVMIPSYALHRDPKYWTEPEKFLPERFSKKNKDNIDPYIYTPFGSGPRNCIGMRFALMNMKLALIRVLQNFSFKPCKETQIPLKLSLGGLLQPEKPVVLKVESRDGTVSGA", "test": "CYP inhibition", "assay_type": "in vitro ADME", "details": "human; isoform 3A4; In vitro CYP inhibition pooled", "source_text": "as §1"}, "MERS-CoV": {"tested_on": "MERS-CoV", "assay_type": "cell-based", "details": "Vero E6/TMPRSS2 MERS-CoV antiviral effect with P-gp inhibitor"}, "[1]": {"target": "HiBiT-tagged nsp3-mac1 in HEK293 cells (Severe acute respiratory syndrome coronavirus 2, UniProt P0DTD1)", "test": "HiBiT Cellular Thermal Shift Assay / isothermal dose response thermal shift assay (ITDRF CETSA)", "assay_type": "cell-based, SARS-CoV-2", "details": "fixed temperature 50.6°C", "experimental": "A PCR product encoding SARS Cov-2 macrodomain residues 2 to 176 was cloned into the XhoI and BamHI restriction sites of the pBIT3.1-N vector (Promega) which has an N-terminal 11 amino acid HiBiT tag.\nA PCR product encoding SARS Cov-2 macrodomain residues 1 to 176 was cloned into the HindIII and XhoI restriction sites of the pBIT3.1-C vector(Promega) which has an C-terminal 11 amino acid HiBiT tag.\nBoth constructs were evaluated for CETSA experiments and found to give similar results. For the results described the CHIBIT tag was used.\nHiBiT Cellular Thermal Shift Assay (HiBiT-CETSA). To assess the engagement of nsp3-mac1 in intact cells, a HiBiT Cellular Thermal Shift Assay was conducted as described by Ramachandran et al. ([23]). The Nano-Glo HiBiT lytic detection system (Promega) was used according to the manufacturer’s instructions. Briefly, HEK293 cells were reverse-transfected with HiBiT-tagged nsp3-mac1 at a concentration of 400,000 cells/mL using the FuGENE transfection reagent (Promega). Following a 24-hour incubation period, the cells were trypsinized and resuspended in assay medium at the same concentration.\nFor CETSA, the cells were divided into two groups: one treated with 30 μM of the compounds and the other with DMSO as a control. […] The luminescence signals were measured using a PHERAstar FSX and analyzed with GraphPad Prism software (v.9 or v.10)."}}, "data": [{"compound": "CC(C)C(Nc1ncnc2[nH]ccc12)c1ccc2c(c1)S(=O)(=O)CCC2", "note": "(stereo not shown) [ASAP-0008327]", "values": [{"measurement": "perc_activity", "setting": "kinase panel; kinase ALK(h), ATP 200 uM", "result": 93, "unit": "%"}, {"measurement": "perc_activity", "setting": "kinase panel; kinase AMPKα1(h), ATP 45 uM", "result": 94, "unit": "%"}, {"measurement": "perc_activity", "setting": "kinase panel; kinase ASK1(h), ATP 200 uM", "result": 108, "unit": "%"}, {"measurement": "perc_activity", "setting": "kinase panel; kinase Abl(h), ATP 45 uM", "result": 93, "unit": "%"}, {"measurement": "perc_activity", "setting": "kinase panel; kinase Aurora-A(h), ATP 15 uM", "result": 57, "unit": "%"}]}, {"compound": "CNCc1cc(-c2cc3c(N[C@@H](c4ccc5c(c4)S(=O)(=O)CCC5)C(C)C)ncnc3[nH]2)co1", "note": "[ASAP-0011176]", "values": [{"measurement": "CC50", "setting": "in vitro", "result": "> 50", "unit": "µM"}]}, {"compound": "CC(C)C(Nc1ncnc2[nH]c(C(=O)NC3CCN(C)C3)cc12)c1ccc2c(c1)S(=O)(=O)CCC2", "note": "(stereo not shown) [ASAP-0011198]", "values": [{"measurement": "IC50", "setting": "CYP2C19", "result": "> 50", "unit": "µM"}, {"measurement": "IC50", "setting": "CYP2C9", "result": "> 50", "unit": "µM"}, {"measurement": "IC50", "setting": "CYP1A2", "result": "> 50", "unit": "µM"}, {"measurement": "IC50", "setting": "CYP2D6", "result": "> 50", "unit": "µM"}, {"measurement": "IC50", "setting": "CYP3A4", "result": "> 50", "unit": "µM"}]}, {"compound": "Cn1ncc(-c2cc3c(N[C@@H](c4ccc5c(n4)OCCO5)C(C)(C)C)ncnc3[nH]2)c1C#N", "note": "[ASAP-0011221]", "values": [{"measurement": "EC50", "setting": "MERS-CoV", "result": "> 5", "unit": "µM"}, {"measurement": "EC90", "setting": "MERS-CoV", "result": "> 5", "unit": "µM"}, {"measurement": "perc_max_measured", "setting": "MERS-CoV; maximum measured response", "result": 128.492, "unit": "%"}, {"measurement": "perc_min_measured", "setting": "MERS-CoV; minimum measured response", "result": 99.797, "unit": "%"}]}, {"compound": "Cc1nn(C)cc1-c1cc2c(NC(c3ccc4c(c3)S(=O)(=O)CCC4)C(C)C)ncnc2[nH]1", "note": "(stereo not shown) [ASAP-0011446]", "values": [{"measurement": "EC50", "setting": "[1]", "result": 0.014, "unit": "µM"}]}]}
